Measured values reported in PubChem BioAssay AID1745844 (Carcinogenic Potency Database (CPDB), 2022).
The source made the active and inactive calls. How the calls were made is not given here.

Test system: rodent lifetime carcinogenesis bioassay, tumor incidence TD50
Assay: chronic cancer bioassays in animals – CPDB, compiled studies (AID 1745844)
Settings: in feed, dosed 78 weeks

In the case of `[O-]/[N+](=N\O)c1ccccc1`, the TD50 (mouse, strain B6C3F1, females, site: Harderian gland, lesion: adenoma, NOS, study length 95 weeks) is reported as 1270 mg/kg/day, the TD50 (mouse, strain B6C3F1, females, site: Zymbal's gland, lesion: sebaceous adenocarcinoma + squamous-cell carcinoma, study length 95 weeks) is reported as 3930 mg/kg/day and the TD50 (mouse, strain B6C3F1, females, site: all sites + Harderian gland + liver + Zymbal's gland, lesion: hemangioma + hemangiosarcoma + adenoma, NOS + hepatocellular adenoma + hepatocellular carcinoma + sebaceous adenocarcinoma + squamou, study length 95 weeks) is reported as 253 mg/kg/day. The TD50 (mouse, strain B6C3F1, females, site: all sites, lesion: hemangioma + hemangiosarcoma, study length 95 weeks) was 419 mg/kg/day, the TD50 (mouse, strain B6C3F1, females, site: all sites, lesion: hemangiosarcoma, study length 95 weeks) was 1330 mg/kg/day and the TD50 (mouse, strain B6C3F1, females, site: any site (literature study), lesion: several types, types named in the paper, study length 95 weeks) was 211 mg/kg/day. It also gave a TD50 (mouse, strain B6C3F1, females, site: liver, lesion: hepatocellular adenoma + hepatocellular carcinoma + neoplastic nodule, study length 95 weeks) of 413 mg/kg/day, a TD50 (mouse, strain B6C3F1, females, site: liver, lesion: hepatocellular adenoma + hepatocellular carcinoma, study length 95 weeks) of 413 mg/kg/day and a TD50 (mouse, strain B6C3F1, females, site: liver, lesion: hepatocellular carcinoma, study length 95 weeks) of 564 mg/kg/day. The TD50 (mouse, strain B6C3F1, females, site: lung, lesion: alveolar/bronchiolar adenoma + alveolar/bronchiolar carcinoma, study length 95 weeks) was 798 mg/kg/day, the TD50 (mouse, strain B6C3F1, males, site: Harderian gland, lesion: adenoma, NOS, study length 95 weeks) was 1040 mg/kg/day and the TD50 (mouse, strain B6C3F1, males, site: all sites, lesion: hemangiosarcoma, study length 95 weeks) was 1000 mg/kg/day. For the same compound, the TD50 (mouse, strain B6C3F1, males, site: any site (literature study), lesion: several types, types named in the paper, study length 95 weeks) was 252 mg/kg/day, the TD50 (mouse, strain B6C3F1, males, site: liver, lesion: hepatocellular adenoma + hepatocellular carcinoma + neoplastic nodule, study length 95 weeks) was 5450 mg/kg/day and the TD50 (mouse, strain B6C3F1, males, site: lung, lesion: alveolar/bronchiolar adenoma + alveolar/bronchiolar carcinoma, study length 95 weeks) was 2390 mg/kg/day. For the same compound, the TD50 (rat, strain Fischer 344, females, site: Zymbal's gland, lesion: ceruminous carcinoma + squamous-cell carcinoma, study length 106 weeks) was 171 mg/kg/day, the TD50 (rat, strain Fischer 344, females, site: all sites + liver + stomach + Zymbal's gland, lesion: hemangiosarcoma + hepatocellular carcinoma + neoplastic nodule + squamous-cell carcinoma + squamous-cell papilloma + ceruminous ca, study length 106 weeks) was 14.1 mg/kg/day and the TD50 (rat, strain Fischer 344, females, site: all sites, lesion: hemangiosarcoma, study length 106 weeks) was 17.4 mg/kg/day. The TD50 (rat, strain Fischer 344, females, site: any site (literature study), lesion: several types, types named in the paper, study length 106 weeks) was 11.2 mg/kg/day, the TD50 (rat, strain Fischer 344, females, site: liver, lesion: hepatocellular adenoma + hepatocellular carcinoma + neoplastic nodule, study length 106 weeks) was 17.7 mg/kg/day and the TD50 (rat, strain Fischer 344, females, site: liver, lesion: hepatocellular carcinoma + neoplastic nodule, study length 106 weeks) was 17.7 mg/kg/day. The TD50 (rat, strain Fischer 344, females, site: liver, lesion: hepatocellular carcinoma, study length 106 weeks) was 20.1 mg/kg/day, the TD50 (rat, strain Fischer 344, females, site: stomach, lesion: squamous-cell carcinoma + squamous-cell papilloma, study length 106 weeks) was 27.8 mg/kg/day and the TD50 (rat, strain Fischer 344, females, site: stomach, lesion: squamous-cell carcinoma, study length 106 weeks) was 31.3 mg/kg/day. It also gave a TD50 (rat, strain Fischer 344, males, site: all sites + liver + stomach, lesion: hemangiosarcoma + hepatocellular carcinoma + neoplastic nodule + squamous-cell carcinoma + squamous-cell papilloma, study length 105 weeks) of 5.33 mg/kg/day, a TD50 (rat, strain Fischer 344, males, site: all sites, lesion: hemangiosarcoma, study length 105 weeks) of 5.49 mg/kg/day and a TD50 (rat, strain Fischer 344, males, site: any site (literature study), lesion: several types, types named in the paper, study length 105 weeks) of 8.85 mg/kg/day. For the same compound, the TD50 (rat, strain Fischer 344, males, site: body cavities, lesion: mesothelioma, NOS + mesothelioma, study length 105 weeks) was 139 mg/kg/day, the TD50 (rat, strain Fischer 344, males, site: liver, lesion: hepatocellular adenoma + hepatocellular carcinoma + neoplastic nodule, study length 105 weeks) was 9.28 mg/kg/day and the TD50 (rat, strain Fischer 344, males, site: liver, lesion: hepatocellular carcinoma + neoplastic nodule, study length 105 weeks) was 9.28 mg/kg/day. The TD50 (rat, strain Fischer 344, males, site: liver, lesion: hepatocellular carcinoma, study length 105 weeks) was 30.7 mg/kg/day, the TD50 (rat, strain Fischer 344, males, site: stomach, lesion: squamous-cell carcinoma + squamous-cell papilloma, study length 105 weeks) was 6.28 mg/kg/day and the TD50 (rat, strain Fischer 344, males, site: stomach, lesion: squamous-cell carcinoma, study length 105 weeks) was 6.94 mg/kg/day. For the same compound, the TD50 (rat, strain Fischer 344, males, site: subcutaneous tissue, lesion: fibroma, study length 105 weeks) was 10.5 mg/kg/day.

With `Nc1ccc(S(=O)(=O)c2ccc(N)cc2)cc1` the carcinogen call (mouse, strain B6C3F1, females, site: any site (literature study), lesion: several types, types named in the paper, study length 107 weeks) was “negative (inactive)”, the carcinogen call (mouse, strain B6C3F1, males, site: any site (literature study), lesion: several types, types named in the paper, study length 107 weeks) was “negative (inactive)” and the carcinogen call (rat, strain Fischer 344, females, site: any site (literature study), lesion: several types, types named in the paper, study length 105 weeks) was “negative (inactive)”. The TD50 (rat, strain Fischer 344, males, site: all sites, lesion: lymphoma, study length 104 weeks) was 50.1 mg/kg/day, the TD50 (rat, strain Fischer 344, males, site: any site (literature study), lesion: several types, types named in the paper, study length 104 weeks) was 22.4 mg/kg/day and the TD50 (rat, strain Fischer 344, males, site: peritoneum, lesion: fibrosarcoma + sarcoma, NOS, study length 104 weeks) was 56.3 mg/kg/day. It also gave a TD50 (rat, strain Fischer 344, males, site: peritoneum, lesion: fibrosarcoma, study length 104 weeks) of 148 mg/kg/day, a TD50 (rat, strain Fischer 344, males, site: peritoneum, lesion: sarcoma, NOS, study length 104 weeks) of 91.3 mg/kg/day and a TD50 (rat, strain Fischer 344, males, site: spleen, lesion: fibroma, study length 104 weeks) of 28.5 mg/kg/day. The TD50 (rat, strain Fischer 344, males, site: spleen, lesion: fibrosarcoma + fibroma + sarcoma, NOS, study length 104 weeks) was 22.4 mg/kg/day, the TD50 (rat, strain Fischer 344, males, site: spleen, lesion: fibrosarcoma, study length 104 weeks) was 167 mg/kg/day and the TD50 (rat, strain Fischer 344, males, site: spleen, lesion: sarcoma, NOS, study length 104 weeks) was 170 mg/kg/day.
